The values below come from US6440691B1, “Melanins with improved ability to inhibit HIV replication” (Large Scale Biology Corporation, priority 1997, dated 2002).

Where a SMILES comes first, the peptide text is derived from it.

One test relates to HIV-2 (ROD). Further details: unit not given here. The settings on record: Table 1; cited from earlier work.
A further test deals with HIV-1 (111a). Further details: unit not given here. To be noted: Table 1; cited from earlier work.
A further test relates to HIV-1 IIIB. Kind of test: Anti-HIV activity: protection of MT-2 cells from viral-induced cytopathic effect, neutral red uptake. The format is cell-based. The settings on record: Table 2, CPE after three days.

Description for HIV-1 IIIB: Dried melanins were analyzed for anti-HIV activity essentially as described by Montefiori, et al., 1988, J. Clin. Microbiol. […] In brief, the antiviral activities of the various melanins and melanin derivatives described in the present examples were measured in 96-well microdilution plates. Two-fold serial dilutions of melanins were made in triplicate in a total of 100 μl growth medium (RPMI-1640 containing 12% host-inactivated fetal bovine serum and 50 μg gentamicin/ml) per well. MT-2 cells (5×10^4) in 100 μl of growth medium were added to each well and incubated for 10 minutes. Fifty microliters of virus (5×10^4 TCID50/50 μl) were then added to all wells except for one row of eight noncytopathic control wells; these received growth medium in place of virus. Viral-induced cytopathic effect (CPE) was quantified three days later by vital dye (neutral red) uptake in remaining viable cells. Neutral red uptake is a linear function of cell viability with A540 of 0.025 to 0.85 corresponding to 2×10^4 to 25×10^4 viable cells/well (Montefiori, et al., 1988). Percent protection is defined as the difference in A540 between test wells (cells+melanin+virus) and virus control wells (cells+virus) divided by the difference in between cell control wells (cells only) and virus control wells.

For the compound ã-cyclodextrin octasulfate, the “50% inhibitory concentration IC50, HIV-2 (ROD)” value in the test on HIV-2 (ROD) was 1.6. For the same compound, the “50% inhibitory concentration IC50, HIV-1 (111a)” value in the test with HIV-1 (111a) is 0.6.

â-cyclodextrin heptasulfate: the “50% inhibitory concentration IC50, HIV-2 (ROD)” value with HIV-2 (ROD) is listed as 1.8. Further, the “50% inhibitory concentration IC50, HIV-1 (111a)” value with HIV-1 (111a) is given as 3.0.

Take `NCC(=O)N[C@@H](Cc1ccc(O)cc1)C(=O)O` [Gly-Tyr] (H-Gly-Tyr-OH): in the test with HIV-1 IIIB, the “Effective Dose 50 EC50” value was greater than 50 mg/L.

In the case of á-cyclodextrin tetradecasulfate, the “50% inhibitory concentration IC50, HIV-2 (ROD)” value in the test on HIV-2 (ROD) is 1.0. In addition, in the test with HIV-1 (111a), the “50% inhibitory concentration IC50, HIV-1 (111a)” value is 0.8.

In the case of á-cyclodextrin hexasulfate, the “50% inhibitory concentration IC50, HIV-2 (ROD)” value in the test with HIV-2 (ROD) is given as 1.9. Also, the “50% inhibitory concentration IC50, HIV-1 (111a)” value in the test with HIV-1 (111a) is reported as 26.2.

On to ã-cyclodextrin hexadecasulfate, for which, in the test on HIV-2 (ROD), the “50% inhibitory concentration IC50, HIV-2 (ROD)” value is recorded as 0.4. In addition, the “50% inhibitory concentration IC50, HIV-1 (111a)” value in the test with HIV-1 (111a) was 0.2.
